Source: article PMC5983452 (PLoS ONE, 2018)
Several values for one entry are separate records, joined by “and”; a condition that tells them apart may be missing. Identical values can stand only once. Counter-ions that a name gives are not always drawn. Like-named read-outs stand apart in the source and are kept apart here. Each block holds one compound with its values, some of them ahead of it.

Assays:
[1] = Hepatocyte stability, mouse; type: in vitro ADME, CD-1 mice; conditions: male, CD-1, mouse, cryopreserved hepatocytes, read-out: CLint measured with hepatocytes, Mouse
[2] = Hepatocyte stability, rat; type: in vitro ADME, SD rats
[3] = Hepatocyte stability, human; type: in vitro ADME, humans; conditions: for hepatocyte CLint at 1 µM: both sexes, human, cryopreserved hepatocytes, read-out: CLint measured with hepatocytes, Human
[4] = Mouse pharmacokinetic study; conditions: male, CD-1, mouse; for half-life / Vd / clearance / Tmax / bioavailability: plasma
Protocol: Mouse, rat, dog and monkey pharmacokinetic studies. The studies were performed in accordance with the AAALAC International
administered intravenousely (1 mg/kg in saline, tail vein injection, 2 mL/kg) and orally (5 mg/kg in 0.5%
MC/0.1% Tween 80, oral gavage, 10 mL/kg). Animals were weighed prior to dose administration and had free
access to water and food. At pre-specified time intervals up to 24 hours post-dose, blood samples (approximately
30 μL) were collected from saphenous vein into polypropylene micro centrifuge tubes (containing 2 μL of 1000
IU/ml Heparin-Na as anticoagulant) and stored on wet ice until processed to plasma by centrifugation (2000 rpm
for 5 min at 4C) within 30 min of collection. In the same study, urine was collected for 24 hours. For
intravenousely (2 mg/kg in ethanol:saline (10:90) solution, tail vein injection, 2 mL/kg) and orally (100 mg/kg in
ethanol:saline (20:80) solution, oral gavage, 10 mL/kg). Animals were weighed prior to dose administration and

[5] = Hepatocyte stability, dog; type: in vitro ADME, beagle dogs; conditions: male, beagle, cryopreserved hepatocytes, read-out: CLint measured with hepatocytes, Dog
SMYD2 = SMYD2 (Homo sapiens, UniProt Q9NRG4); experiment: SMYD2 biochemical methylation assay (3H-SAM, H3,1–29 peptide, flashplate); set-up: Full length FLAG-SMYD2 and C-terminally Avi-tagged full length SMYD2 (SMYD2-Avi) were cloned into pFastbac vectors; FLAG (N); His tag with TEV cleavage site (N, cleaved yes); made in house; host or cells: Sf9 insect cells (baculovirus)
Sequence of SMYD2 (Q9NRG4 whole entry): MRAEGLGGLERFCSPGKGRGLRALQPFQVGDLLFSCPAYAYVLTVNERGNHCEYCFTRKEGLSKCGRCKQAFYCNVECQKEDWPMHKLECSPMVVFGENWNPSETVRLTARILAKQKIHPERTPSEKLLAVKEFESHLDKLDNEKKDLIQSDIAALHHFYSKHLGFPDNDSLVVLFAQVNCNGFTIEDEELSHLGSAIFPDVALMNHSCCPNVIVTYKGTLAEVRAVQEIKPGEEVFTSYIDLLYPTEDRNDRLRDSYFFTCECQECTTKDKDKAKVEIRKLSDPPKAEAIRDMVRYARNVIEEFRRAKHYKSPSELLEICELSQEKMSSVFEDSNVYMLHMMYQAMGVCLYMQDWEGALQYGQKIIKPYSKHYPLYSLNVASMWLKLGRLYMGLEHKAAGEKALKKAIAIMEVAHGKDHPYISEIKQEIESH
Protocol: Full length FLAG-SMYD2 and C-terminally Avi-tagged full length SMYD2 (SMYD2-Avi) were cloned into pFastbac vectors containing an N-terminal His tag with TEV cleavage site. Virus production was performed using standard protocols and the proteins were coexpressed in either Sf9 (SMYD2) or Hi Five (SMYD2-Avi) cells. After harvest by centrifugation, cell pellets for both proteins were resuspended, sonicated, and then centrifuged to remove cell debris. Protein was purified using nickel affinity chromatography before and after TEV cleavage in a similar fashion as SMYD3. […] SMYD2-Avi was biotinylated using His-tagged BirA enzyme after dialysis into a low salt buffer and the BirA was removed with a final nickel affinity column. […] SMYD3 assays were performed as previously described using N-terminally GST-tagged MAP3K2 protein substrate. […] Reactions were conducted at room temperature with enzyme and inhibitor incubated for 30 minutes before initiating the reaction with substrates. Dose-response curves were tested in duplicate in each experiment. […] Quenched reactions were transferred to a streptavidin-coated flashplate (Perkin Elmer) for capture of the biotinylated peptide. After 2 h incubation at room temperature, the flashplate was washed once with 0.1% Tween-20 and read on a Perkin Elmer Topcount NXT plate reader. Substrate apparent KM values were determined by measuring the initial velocities (v0) in duplicate while varying one substrate at fixed concentration of the second substrate. […] Percent inhibition by compound (% inh) was calculated from Eq 3 %inh=(1-([…] the signal in the presence of compound and max and min are the signals for the DMSO and background controls respectively. […] Mechanism of inhibition was determined by measuring the inhibitor IC50 values while varying the concentration of one substrate at a fixed concentration of the second substrate equal to its KM value. The inhibition constant Ki was calculated from fitting the IC50 versus varied substrate concentration data using the Cheng-Prusoff equations for mixed-type and noncompetitive inhibition below. α is the coefficient accounting for differences in inhibitor affinity between binding enzyme forms after versus before substrate binding.

[6] = Plasma protein binding (equilibrium dialysis), mouse; conditions: male, CD-1, mouse, pH 7.4
Protocol: Caco-2 permeability. Caco-2 cells (obtained from the ATCC), between passage numbers 40 to 60, were seeded onto Millipore
Multiscreen plates at 1x10^5 cells/cm2 in Dulbecco's Modified Eagle Medium. Media was changed every two or three days. On
Day 20, the permeability study was performed using Hanks Balanced Salt Solution (HBSS) pH 7.4 buffer with 25 mM HEPES and
Incubations were carried out in an atmosphere of 5% CO2 with a relative humidity of
The monolayers were prepared by rinsing both basolateral and apical surfaces twice with HBSS at 37°C. Cells were
then incubated with HBSS in both apical and basolateral compartments for 40 min to stabilize physiological parameters. HBSS […]
removed and apical and basolateral samples diluted for analysis by LC-MS/MS. Permeability was assessed in duplicate, on two
different occasions. […] Compounds were quantified by LC-MS/MS analysis using a 5 point calibration curve. The starting concentration (C0) was determined from the dosing solution and
experimental recovery calculated from C0 and both apical and basolateral compartment concentrations. […]
(Papp) for each compound was calculated as: (dQ/dt)/(C0xA), where dQ/dt is the rate of permeation of the drug across the cells, C0 […]
Plasma protein binding. Plasma protein binding was assessed by equilibrium dialysis utilizing the HT-dialysis cell format with a […]

SMILES: NC1CCC(S(=O)(=O)N2C3CCC2CC(NC(=O)c2cc(C4CC4)on2)C3)CC1 [EPZ028862, N-((1R,3R,5S)-8-((1r,4R)-4-aminocyclohexylsulfonyl)-8-aza-bicyclo[3.2.1]octan-3-yl)-5-cyclopropylisoxazole-3-carboxamide hydrochloride]
hepatocyte CLint at 1 µM [1]: 6.6 µL/min/1e6 cells
CLint measured with hepatocytes, Rat ([2]; 1 µM): 3.5 µL/min/106 cells
hepatocyte CLint at 1 µM ([2]; male, Sprague-Dawley, rat, cryopreserved hepatocytes, read-out: CLint measured with hepatocytes, Rat): 5.2 µL/min/1e6 cells
CLint measured with hepatocytes, Human ([3]; 1 µM): 3.7 µL/min/106 cells and < 3 µL/min/106 cells
hepatocyte CLint at 1 µM [3]: 4.8 µL/min/1e6 cells
half-life [4]: 120 min
Vd ([4]; iv, 1 mg/kg): 9.5 L/kg
clearance ([4]; iv, 1 mg/kg): 79.8 mL/min/kg
Tmax ([4]; po, 5 mg/kg): 0.33 h
bioavailability ([4]; po, 5 mg/kg): ~100%
CL renal ([4]; urine and plasma, iv, 1 mg/kg): 23.6 mL/min/kg
hepatocyte CLint at 1 µM [5]: < 3 µL/min/1e6 cells
IC50 (SMYD2; tested in duplicate, read-out: selectivity panel result, SMYD2 (off-target)): > 10000 nM

hepatocyte CLint at 1 µM [1]: 10.9 µL/min/1e6 cells
fraction unbound at 16 h, 1 µM [6]: 0.26
hepatocyte CLint at 1 µM [3]: 6 µL/min/1e6 cells
half-life [4]: 192 ± 60 min
Vd ([4]; iv, 2 mg/kg): 4.5 ± 1 L/kg
clearance ([4]; iv, 2 mg/kg): 37.4 ± 6.7 mL/min/kg
bioavailability ([4]; oral, 10 mg/kg): 241 ± 20%
Tmax ([4]; po, 10 mg/kg): 1.7 ± 0.6 h
mechanism of inhibition with respect to peptide substrate (SMYD2; 1 nM enzyme, 20 nM SAM, varied H3,1–29): noncompetitive
IC50 (SMYD2; IC50 at 20 nM SAM, 1 nM SMYD2, 60 nM H3,1-29, 20 nM SAM): 2.8 ± 0.4 nM
IC50 (SMYD2; IC50 at 200 nM SAM, 1 nM SMYD2, 60 nM H3,1-29, 200 nM SAM): 3.2 ± 0.5 nM
mechanism of inhibition with respect to SAM (SMYD2; IC50 compared at two SAM concentrations differing by 10-fold): either noncompetitive or uncompetitive
IC50 (SMYD2; SMYD2, 20 nM SAM, 60 nM H3,1–29 peptide, read-out: Biochemical IC50): 3.9 nM
Ki (SMYD2; varied H3,1–29 peptide, Eq 6, read-out: Ki (noncompetitive versus peptide)): 3.9 ± 0.4 nM
SMILES: O=C(NC1CN(Cc2cnn(Cc3ccc(Cl)cc3)c2)C1)c1cn(C2CC2)nn1 [EPZ033294]
